Test results as given in ChEMBL document CHEMBL1201862, “PubChem BioAssay data set” (2004).
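Step 1: Grow cells in 96-well plates. Step 2: Expose to compound for 48 hours at 5 concentrations. Step 3: Interpolate endpoints linearly; if unreached, use highest concentration. GI50 marks 50% less growth.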 Activity calls are given as the source filed them. Rule as the data show it: active = GI50 up to about 1.1 µM and inactive = higher.

Tests used:
Test in all cases: NCI-60 cell line screen, 48 h
[1] = test system: NCI-H226
[2] = test system: ACHN
[3] = test system: IGROV-1
[4] = test system: KM12
[5] = test system: RPMI-8226
[6] = test system: OVCAR-4
[7] = test system: K562
[8] = test system: NCI-H522
[9] = test system: NCI-H23
[10] = test system: MOLT-4
[11] = test system: OVCAR-8
[12] = test system: HCT-116
[13] = test system: HOP-62
[14] = test system: SK-MEL-5
[15] = test system: HL-60
[16] = test system: UO-31
[17] = test system: SNB-19
[18] = test system: CCRF-CEM
[19] = test system: SF-539

Measured: GI50

C1OC1CO[C@@H]1CO[C@H]2[C@@H]1OC[C@H]2OCC1CO1 (stereo partly drawn)
inactive: [1] > 100 µM | [2] 73.1 µM | [3] > 100 µM | [4] > 100 µM | [5] > 100 µM | [6] > 100 µM | [7] > 100 µM | [8] > 100 µM | [9] > 100 µM | [10] 78.2 µM | [11] > 100 µM | [12] > 100 µM | [13] > 100 µM | [14] > 100 µM | [15] 82.8 µM | [16] > 100 µM | [17] > 100 µM | [18] > 100 µM | [19] > 100 µM

COC(=O)C1=C(C)N(NC(N)=O)C2(N)N(NC(N)=O)C(C)=C(C(=O)OC)C12C(=O)OC (stereo not drawn)
inactive: [1] > 100 µM | [2] > 100 µM | [3] > 100 µM | [4] > 10 µM | [5] > 100 µM | [6] > 100 µM | [7] > 100 µM | [8] > 100 µM | [9] > 100 µM | [10] > 100 µM | [11] > 100 µM | [12] > 100 µM | [13] > 100 µM | [15] > 100 µM | [16] > 100 µM | [17] > 100 µM | [18] > 100 µM | [19] > 100 µM

Nc1nc2ncn(CC(O)CO)c2c(=S)[nH]1 (stereo not drawn)
inactive: [1] > 100 µM | [2] > 100 µM | [3] > 100 µM | [4] > 100 µM | [5] > 100 µM | [6] > 100 µM | [7] > 100 µM | [8] > 100 µM | [11] > 100 µM | [12] > 100 µM | [13] > 100 µM | [14] > 100 µM | [15] > 100 µM | [16] > 100 µM | [17] > 100 µM | [18] > 100 µM | [19] > 100 µM

c1ccc(SC23C4C5C6C4C2C6C53)nc1 (stereo not drawn)
inactive: [1] > 100 µM | [2] > 100 µM | [3] > 100 µM | [4] > 100 µM | [5] > 39.5 µM | [6] > 100 µM | [7] > 100 µM | [8] > 100 µM | [9] > 100 µM | [10] > 100 µM | [11] > 100 µM | [12] > 100 µM | [13] > 100 µM | [14] > 100 µM | [15] 11.5 µM | [16] 35.6 µM | [17] > 100 µM | [18] > 100 µM | [19] > 75 µM

O=C(CC(=O)c1cccc2ccccc12)C(=O)NC1C2CC3CC(C2)CC1C3 (stereo not drawn)
inactive: [1] > 100 µM | [2] > 100 µM | [3] > 100 µM | [4] > 100 µM | [5] > 100 µM | [6] > 100 µM | [7] 51.4 µM | [8] > 100 µM | [9] > 100 µM | [10] > 100 µM | [11] > 100 µM | [12] > 100 µM | [13] > 100 µM | [14] > 100 µM | [15] 77.1 µM | [16] > 100 µM | [17] > 100 µM | [18] > 100 µM | [19] > 100 µM

COc1ccc(/C(=N\NC(=N)N)C(c2ccc(OC)cc2)C2OC(=O)c3ccccc32)cc1 (stereo not drawn)
inactive: [1] > 100 µM | [2] > 100 µM | [3] > 100 µM | [4] > 100 µM | [5] > 100 µM | [6] > 100 µM | [7] > 100 µM | [8] > 100 µM | [9] > 100 µM | [10] > 100 µM | [11] > 100 µM | [12] > 100 µM | [13] > 100 µM | [14] > 100 µM | [15] > 100 µM | [16] > 100 µM | [17] > 100 µM | [18] > 100 µM | [19] > 100 µM

Clc1cccc(-c2nnc(-c3nn(-c4ccccc4)c4nc5ccccc5nc34)o2)c1
inactive: [1] > 100 µM | [2] > 100 µM | [3] > 100 µM | [4] > 100 µM | [5] > 100 µM | [6] > 100 µM | [7] > 100 µM | [8] > 100 µM | [9] > 100 µM | [10] > 100 µM | [11] > 100 µM | [12] > 100 µM | [13] > 100 µM | [14] 77.4 µM | [15] > 100 µM | [16] > 100 µM | [17] > 100 µM | [18] > 100 µM | [19] > 100 µM

COc1ccc(C2S/C(=C\c3ccc([N+](=O)[O-])cc3)C(=O)N2NC(=O)Cc2ccccc2)cc1 (stereo not drawn)
inactive: [1] > 100 µM | [2] > 100 µM | [3] > 100 µM | [4] > 100 µM | [5] > 100 µM | [6] > 100 µM | [7] > 100 µM | [8] > 100 µM | [9] > 100 µM | [10] 87.3 µM | [11] > 100 µM | [12] 66.4 µM | [13] > 100 µM | [14] > 100 µM | [15] 92.9 µM | [16] > 100 µM | [18] 82.8 µM | [19] > 100 µM
